Measured values from BindingDB's records for doi:10.1016/j.bmcl.2010.01.042 (Bristol Myers Squibb, 2010).

Biological target: Insulin-like growth factor 1 receptor (Homo sapiens) (UniProt P08069)
Test: Inhibition of IGFR1

Insulin-like growth factor 1 receptor (Homo sapiens), sequence (P08069 whole entry, looked up): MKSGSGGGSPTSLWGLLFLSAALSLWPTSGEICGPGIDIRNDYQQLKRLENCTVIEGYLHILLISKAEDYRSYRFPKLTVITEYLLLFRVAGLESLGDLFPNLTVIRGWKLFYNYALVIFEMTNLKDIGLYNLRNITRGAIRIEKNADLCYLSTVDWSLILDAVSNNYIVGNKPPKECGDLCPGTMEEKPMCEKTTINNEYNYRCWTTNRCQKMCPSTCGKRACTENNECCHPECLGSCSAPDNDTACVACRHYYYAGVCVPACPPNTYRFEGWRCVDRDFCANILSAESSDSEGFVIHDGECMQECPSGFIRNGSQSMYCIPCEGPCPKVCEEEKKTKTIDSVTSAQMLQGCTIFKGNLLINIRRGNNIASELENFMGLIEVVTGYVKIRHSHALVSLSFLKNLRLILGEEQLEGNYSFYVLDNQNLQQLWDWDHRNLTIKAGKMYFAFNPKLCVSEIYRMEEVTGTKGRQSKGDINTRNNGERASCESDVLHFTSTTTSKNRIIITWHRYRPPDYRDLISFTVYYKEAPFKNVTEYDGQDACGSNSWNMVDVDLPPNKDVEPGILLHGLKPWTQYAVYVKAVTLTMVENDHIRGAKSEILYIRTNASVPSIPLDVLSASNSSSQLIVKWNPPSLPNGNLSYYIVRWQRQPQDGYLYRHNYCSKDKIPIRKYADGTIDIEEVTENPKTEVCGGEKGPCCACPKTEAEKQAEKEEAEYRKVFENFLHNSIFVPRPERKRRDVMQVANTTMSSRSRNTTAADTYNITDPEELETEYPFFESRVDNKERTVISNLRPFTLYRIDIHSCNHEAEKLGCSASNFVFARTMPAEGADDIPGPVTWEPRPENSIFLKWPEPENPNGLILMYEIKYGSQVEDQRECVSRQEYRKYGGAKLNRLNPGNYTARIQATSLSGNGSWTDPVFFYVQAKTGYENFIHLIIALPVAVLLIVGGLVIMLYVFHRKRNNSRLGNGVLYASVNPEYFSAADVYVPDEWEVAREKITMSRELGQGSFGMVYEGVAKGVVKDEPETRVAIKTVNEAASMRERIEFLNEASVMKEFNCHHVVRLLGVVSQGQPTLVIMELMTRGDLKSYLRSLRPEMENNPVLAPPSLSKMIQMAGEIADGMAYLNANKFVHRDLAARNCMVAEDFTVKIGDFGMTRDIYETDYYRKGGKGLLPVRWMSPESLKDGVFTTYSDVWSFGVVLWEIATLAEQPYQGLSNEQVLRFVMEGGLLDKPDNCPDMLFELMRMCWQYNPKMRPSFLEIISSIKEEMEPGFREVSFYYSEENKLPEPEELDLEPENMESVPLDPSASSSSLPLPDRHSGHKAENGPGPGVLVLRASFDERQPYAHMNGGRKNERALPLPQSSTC

- IC50: > 50 µM
Compound: O=C(Nc1ccc(F)cc1F)c1cccnc1Nc1ccc(Oc2ccnc3[nH]ccc23)c(F)c1 [2-(4-(1H-pyrrolo[2,3-b]pyridin-4-yloxy)-3-fluorophenylamino)-N-(2,4-difluorophenyl)nicotinamide]
